Test results as given in patent US20030229451A1, “Methods and systems for analyzing complex biological systems” (priority 2001, published 2003).

Experiments:
[1] = test system: Arabidopsis thaliana plants; assay: SOA1 phenotypic analysis of herbicide-treated Arabidopsis (MIC, Tmic, leaf traits); assay type: in vivo; conditions: for leafCurling Dev. / leafTwisting Dev. / leafWidth Dev. / matureLeafAnthocyanins Dev. / matureLeafChlorosis Dev. / matureLeafNecrosis Dev. / newLeafAnthocyanins Dev. / newLeafChlorosis Dev. / newLeafNecrosis Dev. / pointedLeaves Dev.: numeric value standardized to mock treated; for tMic Dev.: time to full range of symptoms at MIC, coded; for characteristic morphological symptoms: herbicide-treated Arabidopsis
[2] = test system: Arabidopsis thaliana; assay: MOA1 biochemical (metabolite) profiling by LC-MS and GC-MS

SMILES	leafCurling Dev. [1]	leafTwisting Dev. [1]	leafWidth Dev. [1]	matureLeafAnthocyanins Dev. [1]	matureLeafChlorosis Dev. [1]	matureLeafNecrosis Dev. [1]	newLeafAnthocyanins Dev. [1]	newLeafChlorosis Dev. [1]	newLeafNecrosis Dev. [1]	pointedLeaves Dev. [1]	tMic Dev. [1]	Number of Metabolites Changed: (unknown #) ([2]; 20 min, p < 0.05)	Number of Metabolites Changed: Total # ([2]; 20 min, p < 0.05)	Number of Metabolites Changed: (unknown #) ([2]; 20 min, p < 0.11)	Number of Metabolites Changed: Total # ([2]; 20 min, p < 0.11)	Number of Metabolites Changed: (unknown #) ([2]; 1 hr, p < 0.05)	Number of Metabolites Changed: Total # ([2]; 1 hr, p < 0.05)	Number of Metabolites Changed: (unknown #) ([2]; 1 hr, p < 0.11)	Number of Metabolites Changed: Total # ([2]; 1 hr, p < 0.11)	characteristic morphological symptoms [1]	further results
O=C(O)COc1ccc(Cl)cc1Cl [2,4-D]	1	2	−1	1	2	0	0	1	0	0	2	2	3	8	13	3	7	15	25	–	Symptom Class ([1]; three-week-old Arabidopsis, phenotype class (FIG. 12)): 5
O=C(O)c1cc(Oc2ccc(C(F)(F)F)cc2Cl)ccc1[N+](=O)[O-] [Acifluorfen]	1	0	0	0	0	1	0	0	3	0	1	11	17	20	32	13	19	22	31	Necrotic leaf flecks	–
Nc1nc[nH]n1 [Amitrole]	−1	0	2	0	3	0	0	4	0	0	2	6	9	13	17	8	14	20	32	leaf bleaching and leaf enlargement	–
CCNc1nc(Cl)nc(NC(C)C)n1 [Atrazine]	1	0	−1	0	1	4	0	1	4	1	1	4 (4)	4 (4)	8	11	8	17	24	49	rapid and widespread leaf necrosis	–
O=C(O)Cn1c(=O)sc2cccc(Cl)c21 [Benazolin]	2	2	−2	0	0	0	0	0	0	0	2	–	–	–	–	–	–	–	–	–	–
CC(C)N1C(=O)c2ccccc2NS1(=O)=O [Bentazon]	2	0	−2	0	2	4	0	2	4	1	1	3	9	6	10	9	11	14	19	rapid and widespread leaf necrosis	–
COC(=O)c1cc(Oc2ccc(Cl)cc2Cl)ccc1[N+](=O)[O-] [Bifenox]	1	0	0	0	0	1	0	0	3	0	1	–	–	–	–	–	–	–	–	Necrotic leaf flecks	–
CCSC(=O)N(CC(C)C)CC(C)C [Butylate]	–	–	–	–	–	–	–	–	–	–	–	10	17	21	33	12	18	22	31	–	–
CC(C)OC(=O)Nc1cccc(Cl)c1 [Chloropropham]	–	–	–	–	–	–	–	–	–	–	–	8	12	10	17	5	12	10	20	–	–
COc1c(Cl)ccc(Cl)c1C(=O)O [Dicamba]	2	2	−2	0	2	0	0	0	0	0	2	–	–	–	–	–	–	–	–	–	–
c1cc[n+]2c(c1)-c1cccc[n+]1CC2 [Diquat]	2	0	−2	0	1	4	0	1	4	1	2	–	–	–	–	–	–	–	–	rapid and widespread leaf necrosis	–
CN(C)C(=O)Nc1ccc(Cl)c(Cl)c1 [Diuron]	1	0	−2	0	2	4	0	2	4	1	1	–	–	–	–	–	–	–	–	rapid and widespread leaf necrosis	–
CC(C)C1(C)N=C(c2ncccc2C(=O)O)NC1=O (stereo not drawn) [Imazapyr]	0	0	0	2	0	0	0	2	0	0	2	2	5	3	9	6	8	10	14	anthocyanin accumulation in the older leaves accompanied by chlorosis of the newly emerging leaves	–
CCc1cnc(C2=NC(C)(C(C)C)C(=O)N2)c(C(=O)O)c1 (stereo not drawn) [Imazethapyr]	1	1	0	3	0	0	0	2	0	0	2	–	–	–	–	–	–	–	–	anthocyanin accumulation in the older leaves accompanied by chlorosis of the newly emerging leaves	–
CCC(C)(CC)c1cc(NC(=O)c2c(OC)cccc2OC)on1 [Isoxaben]	–	–	–	–	–	–	–	–	–	–	–	12	26	21	45	16	25	33	55	–	–
CSc1nnc(C(C)(C)C)c(=O)n1N [Metribuzin]	1	0	−2	0	2	4	0	2	4	1	1	–	–	–	–	–	–	–	–	rapid and widespread leaf necrosis	–
CNc1cnn(-c2cccc(C(F)(F)F)c2)c(=O)c1Cl [Norflurazon]	–	–	–	–	–	–	–	–	–	–	–	27	38	36	55	5	6	8	12	–	–
